System: axillary sweating
Test: Placebo-controlled blinded clinical study, gravimetric sweat measurement (Examples 5-10)
Assay type: in vivo, human
Conditions: for percent of subjects with at least a 30% reduction in sweat production vs Baseline / average reduction in sweat production by gravimetric sweat measurement: two weeks after single topical treatment; for average reduction in sweat production by gravimetric sweat measurement: 0.3 mL/axilla; for greater reduction in sweat production than control (placebo) group / greater effectiveness in reducing sweat production than placebo (responder rate): two weeks after treatment; for greater reduction in sweat production than control (placebo) group: placebo 53 mg; for greater effectiveness in reducing sweat production than placebo (responder rate): placebo 29% responders
Description: (§1) The purpose of the study was to determine if Emulsion H is biologically active in reducing sweating. […] Some subjects received treatment with the potentially biologically active formulation and some subjects received treatment with a placebo, i.e. water. Neither the subject nor the investigator knew which treatment the subject was receiving.
Two weeks after a single treatment, subjects were re-assessed by gravimetric sweat measurement to determine the degree of sweat reduction. A comparison of post-treatment sweat production between the treatment groups was made to determine the degree of sweat reduction by the potentially biologically active formulation.
The sweat production of the subject is measured gravimetrically by the following procedure: • The subject was placed in a room with relatively constant temperature and humidity for at least 30 min. • The subject was placed in a semi-reclining position with the axilla fully exposed and the arm resting comfortably above the head. • The subject's axilla was dried gently with a cotton gauze pad. • The investigator used a forceps to place one filter paper (90 mm diameter) on a balance sensitive to 0.1 mg and recorded its weight. • The investigator used a forceps to place the measured filter paper on the axilla, covered it with plastic and taped the edges of the bag against the subject's skin with hypoallergenic tape to form a seal around the plastic bag. • After 5 minutes, the investigator gently removed the tape and plastic from the subject's axilla and then, using forceps, immediately placed the filter paper onto the scale to record its weight. The scale was then dried and zero balanced. • This measurement was then repeated as described above with the other axilla.
If the subject was eligible for treatment on this basis, the subject was then treated. For treatment, one of the study preparations (0.3 mL/axilla) was applied topically with a gloved finger by the investigator to the subject's skin of the axilla. Emulsion H contained 19.2 mg Labrafac Lipophile WL 1349 and 28.8 mg Polysorbate 80, NF, in addition to 0.9% Sodium Chloride Irrigation, USP, and Gelatin Phosphate Buffer. The average diameter (e.g., particle size) of nanoparticles contained in the Emusion H empty nanoparticle composition was approximately 80.1 nm. The preparation was administered in small increments to avoid run-off. The liquid was rubbed-in until vanished.
The subject was scheduled for a follow-up office visit two weeks after the treatment. At the follow-up office visit, the subject was questioned as to their compliance with the instructions regarding which medications not to use between treatment and the two week follow-up office visit. If the subject was non-compliant, the subject was disqualified from the study. If the subject was compliant, the subject was re-assessed using the gravimetric sweat measurement procedure.
as §1, with “V” for “H”
If the subject was eligible for treatment on this basis, the subject was then treated. For treatment, one of the study preparations (0.3 mL/axilla) was applied topically with a gloved finger by the investigator to the subject's skin of the axilla. Emulsion V contained Emulsifying Wax, Gelatin Phosphate Buffer Solution, Isopropyl Myristate, Labrafac Lipophile, Methylparaben, Mineral Oil Heavy Viscosity Range, Polysorbate 80, Propylparaben, Purified Water, Sodium Chloride Injection, and White Petrolatum. All ingredients are either NF or USP grade. The average diameter (e.g., particle size) of nanoparticles contained in the Emusion V empty nanoparticle composition was approximately 77.1 nm. The preparation was administered in small increments to avoid run-off. […]

Compound	percent of subjects with at least a 30% reduction in sweat production vs Baseline	average reduction in sweat production by gravimetric sweat measurement	greater reduction in sweat production than control (placebo) group	greater effectiveness in reducing sweat production than placebo (responder rate)
CCCCCCCCCCCCCC(=O)OC(C)C [Isopropyl Myristate]	55%	103 mg	195%	191%
CCCOC(=O)c1ccc(O)cc1 [Propylparaben]	70%	177 mg	337%	245%
Polysorbate 80	80%	159 mg	300%	280%

Source: patent US20120328525A1, “NANOPARTICLE COMPOSITIONS AND COMPONENTS THEREOF” (priority 2011, published 2012)
